# Measured values from PubChem BioAssay AID1419 (Emory University Molecular Libraries Screening Center, 2008).
# The source made the active and inactive calls. The rule behind the calls is not given here.
# Test: EBV protein-peptide binding inhibitors, dose response, biochemical, fluorescence polarization (AID 1419)
# Settings: cell-free protein-peptide binding, 2 h; for fold change: measured here: P channel fold over control, at 54 µM
SMILES,IC50,fold change
O=C1C(Br)=Cc2cccc3cccc1c23,2 µM,7.55
COC(=O)C[n+]1cccc2ccccc21,1.59 µM,14.8
O=C(COc1ccccc1Cl)c1ccc[nH]1,> 54 µM (inactive),1.08
O=[N+]([O-])c1cc(/C=N\Nc2nccs2)ccc1O,1.31 µM,1.07
COc1ccc(/C(O)=C/c2nc3ccccc3n(-c3ccccc3)c2=O)cc1,> 54 µM (inactive),17
O=S(=O)(Nc1nc2ccccc2nc1N1CCN(c2ccccn2)CC1)c1ccc(Cl)cc1,> 54 µM (inactive),2.14
CC(=O)c1ccc2noc(-c3ccc(F)cc3)c2c1,3.34 µM,4.39
COC(=O)c1cc2c(-c3ccccc3)cc3ccccn3c-2c1C(=O)OC,27 µM,1.65
COC(=O)C1=COC(C)C2CN3CCc4c([nH]c5cc(OC)c(OC)cc45)C3CC12 (stereo not drawn),8.76 µM,2.6
COc1ccc(OC)c2c1C(=O)c1ccccc1C2=O,< 0.42 µM,41.6
CCOc1ccc(-c2nn(-c3ccccc3)cc2/C=C2\SC(=S)N(C3CCS(=O)(=O)C3)C2=O)cc1 (stereo not drawn),2.12 µM,10.9
CCOC(=O)CC(=O)CSc1nc(-c2cccnc2)ccc1C#N,> 54 µM (inactive),1.63
CCOC(=O)Cc1csc(SCC(=O)Nc2sc3c(c2C(N)=O)CCC3)n1,> 54 µM (inactive),1.09
COc1ccc(N=Cc2cc(Cc3ccccc3Cl)cc([N+](=O)[O-])c2O)cc1OC,13.8 µM,2.41
COc1ccc(C2CC(c3ccccc3)n3nc(NC(=O)c4cccs4)nc3N2)cc1 (stereo not drawn),> 54 µM (inactive),0.943
CCn1c(O)c(C=Nc2ccc(N3CCOCC3)cc2)c(=O)n(CC)c1=S,4.91 µM,36.6
CCN(CC)c1ccc(/C=c2/sc3nnc(-c4ccccc4C)n3c2=O)cc1,3.39 µM,17.4
O=C1NC(=O)[C@@H]2C3c4ccccc4C=CN3[C@H](C(=O)c3cccs3)[C@H]12 (stereo partly drawn),4.84 µM,3.36
N#CC1=C(N)OC2=C(CC/C2=C\c2ccccc2)C1c1ccccc1 (stereo not drawn),< 0.42 µM,6.24
CC1C2C(C)N(C)C(=O)N(C)C2N(C)C(=O)N1C (stereo not drawn),8.68 µM,8.94

SMILES,IC50,fold change
Cc1ccc(S(=O)(=O)Nc2nc3ccccc3nc2Nc2cccc(S(=O)(=O)N3CCCC3)c2)cc1,2.64 µM,2.44
O=C1/C(=C/c2ccco2)SC(=S)N1c1cccnc1,> 54 µM (inactive),1.09
CCCCn1c(N)c(NCCC(C)C)c(=O)[nH]c1=O,24.4 µM,1.91
O=c1cc(C(F)(F)F)c2cc3c4c(c2o1)CCCN4CCC3,< 0.42 µM,57.5
CCN(CC)S(=O)(=O)c1ccc(C(=O)/C=C/c2ccc(-c3ccc([N+](=O)[O-])cc3)o2)cc1,2.97 µM,12.8
CCN(CC)c1ccc(/C=C/C(=O)c2ccc(Br)cc2)cc1,2.64 µM,31.1
Cc1ccc([N+](=O)[O-])cc1N=Nc1c(-c2ccc([N+](=O)[O-])cc2)[nH]n(C(N)=S)c1=O,1.83 µM,1.04
CC1=CC(C#N)(C#N)C(C#N)(C#N)C(c2ccccc2)N1 (stereo not drawn),< 0.42 µM,10
N#Cc1c2nc3ccccc3nc2n2cc(NC(=O)c3ccc(F)cc3)ccc12,4.15 µM,0.583
O=Cc1ccc2noc(-c3ccc(F)cc3)c2c1,1.47 µM,5.46
C=CCN1C(=O)/C(=C/c2ccc(N(C)C)cc2)S/C1=N\c1nnc(CC)s1,9.51 µM,10.2
CC(=O)[C@@H]1[C@@H]2C(=O)N(C3CCCCC3)C(=O)[C@@H]2C2c3ccccc3C=CN21 (stereo partly drawn),51.9 µM (inactive),2
Cc1[nH]c(=O)[nH]c(=O)c1S(=O)(=O)N1CCN(c2ccccc2F)CC1,> 54 µM (inactive),1.04
Cc1nn(C)c(C)c1N1C(=O)c2cccc3c(N)ccc(c23)C1=O,< 0.42 µM,203
CCCCNc1c2c3c(cccc3n(C)c1=O)C(=O)c1ccccc1-2,< 0.42 µM,150
COc1ccc(OC)c(C2C3CN(C(C)C)CC=C3C(C#N)=C(N)C2(C#N)C#N)c1 (stereo not drawn),5.91 µM,3.96
COc1ccc(NS(=O)(=O)c2ccc(Cl)s2)cn1,4.58 µM,3.24
O=C(Nc1ccc2[nH]c3c(c2c1)CCCC3)c1ccco1,27.9 µM,2.83
C=CCc1cccc(C=Nc2cc(Br)ccc2O)c1O,5.72 µM,27.4
COc1cc(C2C(C#N)=C(N)OC3=C2C(=O)CC(C)(C)C3)c([N+](=O)[O-])cc1OC (stereo not drawn),6.61 µM,1.98

SMILES,IC50,fold change
O=C(Cn1c2ccccc2c(=O)c2ccccc21)N/N=C/c1ccc(N2CCCC2)c([N+](=O)[O-])c1,> 54 µM (inactive),0.76
CCOC(=O)c1ccc(N2C(=O)C3C(C2=O)C(C(=O)c2ccc(Cl)cc2)N2CCCC32)cc1 (stereo not drawn),2.54 µM,5.32
COc1ccc(N=Nc2nc3ccc(Br)cc3n2C)cc1,> 54 µM (inactive),1.28
Cc1cc(C(F)(F)F)n2nc(-c3sccc3-n3cccc3)cc2n1,> 54 µM (inactive),0.957
Cc1cc[n+](-c2[nH]c(=O)sc2/C=N/N=C(\[O-])c2ccccc2)cc1C,< 0.42 µM,16.5
Cc1nn(C)c(C)c1CN(C)C(=O)C1c2ccccc2Oc2ccccc21,3.77 µM,4.27
CCCCOC(=O)Cn1c2ccc(OC)cc2c2nc3ccccc3nc21,4.54 µM,5.84
CCOC(=O)C1CCCN(c2nc3ccccc3nc2C(C#N)C(=O)NCc2ccccc2)C1 (stereo not drawn),8.82 µM,2.73
C=CCn1c(=O)[nH]c2nc3cc(N=CN(C)C)c(C)cc3nc2c1=O,< 0.42 µM,40
CCOC(=O)N1CCC(Nc2nc3ccccc3nc2NS(=O)(=O)c2ccc(Cl)cc2)CC1,> 54 µM (inactive),1.39
CCOC(=O)c1c(/N=C/c2c(O)n(-c3ccc(F)cc3)c(=S)[nH]c2=O)sc2c1CCCC2,22.8 µM,3.7
CCCCOc1[nH]c2nc(-c3ccco3)n(Cc3ccco3)c(=N)c2c1C#N,> 54 µM (inactive),1.17
COC(=O)c1cc(N2CCN(C)CC2)nc2ccccc12,32.8 µM (inactive),1.52
COc1ccc(/C=C2\SC(c3ccc(C)cc3)=NC2=O)cc1OC,> 54 µM (inactive),8.37
O=C(COC(=O)c1cccnc1)NC1CCCc2ccccc21 (stereo not drawn),> 54 µM (inactive),1.84
CCN(CC)C(=O)CSc1nnc2nnc3cc(OC)ccc3n12,< 0.42 µM,7.06
O=c1oc2cc(O)ccc2cc1-c1nc2c(s1)CCc1ccccc1-2,< 0.42 µM,37.6
NC(=O)c1cc2ccc(O)cc2oc1=NCc1ccccc1,< 0.42 µM,34.3
c1ccc(-c2cn3nc(-c4ccccc4)c(-c4ccccc4)nc3n2)cc1,0.78 µM,21.2
